Experimental data reported in US6541425B1, “Retarding formulations of active substances used for plant protection” (priority 1998, dated 2003).
Values after ≈ are worked out from the molar mass of the structure shown.

Experiments:
[1] = Solubility in water of the active ingredients; format: physicochemical; conditions: for solubility: water

Compound | solubility [1] [mg/mL] | melting point [°C] | Solubility in water [1] [mg/mL]
CNC(=O)/C(=N/OC)c1ccccc1CO/N=C(C)/C(=N/OC)OC(C)C [Compound 1, N-methyl-2-[2-(2-isopropoxy-2-(Z)-methoxyimino-1-methyl-(E)-ethylideneaminooxymethyl)phenyl]-2-(E)-methoxyiminoacetamide] | 1.34 (≈ 3.54 mM) | 57 | 
CCC(C)OC(=N\OC)/C(C)=N/OCc1ccccc1/C(=N\OC)C(=O)NC (centres unmarked) [Compound 2, N-methyl-2-[2-(2-sec-butoxy-2-(Z)-methoxyimino-1-methyl-(E)-ethylideneaminooxymethyl)phenyl]-2-(E)-methoxyiminoacetamide] | 1.19 (≈ 3.03 mM) | 48 to 50 | 
CNC(=O)/C(=N/OC)c1ccccc1CO/N=C(C)/C(=N/OC)OCC(C)C [Compound 3, N-methyl-2-[2-(2-isobutoxy-2-(Z)-methoxyimino-1-methyl-(E)-ethylideneaminooxymethyl)phenyl]-2-(E)-methoxyiminoacetamide] | 0.5 (≈ 1.27 mM) | 68 | 
CNC(=O)/C(=N/OC)c1ccccc1CO/N=C(C)/C(=N/OC)C(/C)=N/OC [Compound 4, N-methylphenyl-2-((3,4-[E]-bis(methoximino), 2-[E]-oximinopentyl)methyl)-alpha-[E]-methoximinoacetamide] |  |  | 0.450 (≈ 1.15 mM)
N-methylphenyl-2-((3-[E]-methoxyimino, 5-methyl, 2-[E]-oximino-hex-4-en-yl)methyl)-alpha-[E]-methoximinoacetamide [Compound 5] |  |  | 0.058
